Legend:
RPMI-8226 = experiment: Growth inhibition of human RPMI8226 cells after 72 hrs by MTS/PMS assay; format: functional; details: RPMI-8226, 72 h
[1] = molecular target: Heat shock protein HSP 90-alpha (Homo sapiens, UniProt P07900); experiment: Displacement of FITC-GDA from Hsp90alpha (unknown origin) after 24 hrs by fluorescence polarization assay; details: read-out: Kd(app)
Endoplasmin = Endoplasmin (Canis lupus familiaris, UniProt P41148); experiment: Displacement of FITC-GDA from recombinant canine Grp94 expressed in baculovirus infected Sf21 insect cells after 24 hrs by fluorescence polarization assay; details: read-out: Kd(app)
Heat shock protein HSP90 [2] = molecular target: T1, Heat shock protein HSP90 (Homo sapiens, UniProt P07900+P08238); experiment: Inhibition of Hsp90 in human RPMI8226 cells assessed as induction of Hsp70 expression at 0.75 to 7.5 uM after 24 hrs by Western blot analysis; format: cell-based
Heat shock protein HSP90 [3] = molecular target: T1, Heat shock protein HSP90; experiment: Inhibition of Hsp90 in human RPMI8226 cells assessed as induction of Akt degradation at 0.75 to 7.5 uM after 24 hrs by Western blot analysis; format: cell-based

Endoplasmin, sequence (P41148 whole entry): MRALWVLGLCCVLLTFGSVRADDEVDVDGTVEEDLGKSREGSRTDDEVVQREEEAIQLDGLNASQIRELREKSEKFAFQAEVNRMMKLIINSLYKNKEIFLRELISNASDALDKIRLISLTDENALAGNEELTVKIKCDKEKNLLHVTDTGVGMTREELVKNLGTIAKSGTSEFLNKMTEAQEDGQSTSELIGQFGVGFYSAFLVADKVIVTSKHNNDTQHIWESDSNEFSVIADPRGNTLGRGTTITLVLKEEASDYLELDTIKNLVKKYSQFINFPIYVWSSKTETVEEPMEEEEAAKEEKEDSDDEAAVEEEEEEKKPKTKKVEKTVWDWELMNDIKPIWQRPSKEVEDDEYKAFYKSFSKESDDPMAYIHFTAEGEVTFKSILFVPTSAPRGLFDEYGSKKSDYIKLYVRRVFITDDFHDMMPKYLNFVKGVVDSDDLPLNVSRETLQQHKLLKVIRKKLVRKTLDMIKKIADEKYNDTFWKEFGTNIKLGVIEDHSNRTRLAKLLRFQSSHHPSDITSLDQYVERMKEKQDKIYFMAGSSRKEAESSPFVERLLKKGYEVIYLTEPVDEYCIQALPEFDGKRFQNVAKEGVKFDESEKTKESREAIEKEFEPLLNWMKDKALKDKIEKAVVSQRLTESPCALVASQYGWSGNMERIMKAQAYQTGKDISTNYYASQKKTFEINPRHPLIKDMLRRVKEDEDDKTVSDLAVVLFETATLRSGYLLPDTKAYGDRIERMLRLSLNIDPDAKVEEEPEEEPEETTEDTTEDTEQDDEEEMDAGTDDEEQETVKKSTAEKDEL

| SMILES | GI50 (RPMI-8226) [nM] | Kd [1] [nM] | Kd (Endoplasmin) [nM] | inhibition (INH) (Heat shock protein HSP90 [2]) | inhibition (INH) (Heat shock protein HSP90 [3]) |
| --- | --- | --- | --- | --- | --- |
| COC(=O)c1c(O)cc(O)c(Cl)c1CCc1nccn1Cc1ccccc1 | 10200 |  |  |  |  |
| O=C(c1cc(Sc2ccccc2O)c(O)cc1O)N1Cc2ccccc2C1 |  | 65 | 29 |  |  |
| O=C(c1cc(Sc2ccc(Cl)cc2Cl)c(O)cc1O)N1Cc2ccccc2C1 |  | 460 | 59 |  |  |
| Cc1ccc(Cc2cc(C(=O)N3Cc4ccccc4C3)c(O)cc2O)cc1 | 2700 | 40 | 40 |  |  |
| O=C(c1cc(Sc2ccc(O)cc2)c(O)cc1O)N1Cc2ccccc2C1 |  | 52 | 70 |  |  |
| O=C(c1cc(-c2ccccc2)c(O)cc1O)N1Cc2ccccc2C1 | > 25000 | > 100000 | > 100000 |  |  |
| O=C(c1cc(N2CCc3ccccc32)c(O)cc1O)N1Cc2ccccc2C1 |  | > 50000 | 9890 |  |  |
| O=C(c1cc(Sc2cc(Cl)cc(Cl)c2)c(O)cc1O)N1Cc2ccccc2C1 |  | 29 | 31 |  |  |
| Cc1ccc(Sc2cc(C(=O)N3Cc4ccccc4C3)c(O)cc2O)c(C)c1 |  | 70 | 30 |  |  |
| COC(=O)c1cc(C(=O)N2Cc3ccccc3C2)c(O)cc1O | 13800 | > 10000 | > 10000 |  |  |
| O=C(c1cc(Cc2ccccc2Cl)c(O)cc1O)N1Cc2ccccc2C1 |  | 200 | 60 |  |  |
| COc1cccc(Sc2cc(C(=O)N3Cc4ccccc4C3)c(O)cc2O)c1 | 1900 | 37 | 34 |  |  |
| CCOC(=O)c1cc(C(=O)N2Cc3ccccc3C2)c(O)cc1O |  | 3520 | 770 |  |  |
| Cc1ccc(C)c(Sc2cc(C(=O)N3Cc4ccccc4C3)c(O)cc2O)c1 |  | 31 | 29 |  |  |
| COC1=C2C[C@@H](C)C[C@H](OC)[C@H](O)[C@@H](C)/C=C(\C)[C@H](OC(N)=O)[C@@H](OC)/C=C\C=C(/C)C(=O)NC(=CC1=O)C2=O [GELDANAMYCIN] | 3 |  |  |  |  |

Results, then the compound that gave them:

| GI50 (RPMI-8226) [nM] | Kd [1] [nM] | Kd (Endoplasmin) [nM] | inhibition (INH) (Heat shock protein HSP90 [2]) | inhibition (INH) (Heat shock protein HSP90 [3]) | SMILES |
| --- | --- | --- | --- | --- | --- |
|  | 66 | 21 |  |  | Cc1ccc(Sc2cc(C(=O)N3Cc4ccccc4C3)c(O)cc2O)cc1C |
|  | 26 | 13 |  |  | O=C(c1cc(Sc2ccccc2)c(O)cc1O)N1Cc2ccccc2C1 |
|  |  | 20 |  |  | O=C(c1cc(Br)c(O)cc1O)N1Cc2ccccc2C1 |
| 3000 | 60 | 13 |  |  | O=C(c1cc(Cc2ccc(Cl)cc2)c(O)cc1O)N1Cc2ccccc2C1 |
| 3700 | 66 | 15 |  |  | O=C(c1cc(Cc2ccccc2)c(O)cc1O)N1Cc2ccccc2C1 |
| 1400 | 77 | 8 | Not Active | Not Active | O=C(c1cc(Cc2ccc(F)cc2)c(O)cc1O)N1Cc2ccccc2C1 |

From ChEMBL document CHEMBL4130519, “Resorcinol-Based Grp94-Selective Inhibitors” (ACS Med Chem Lett, 2017)
